# Laboratory results as given in US20110152243A1, “NOVEL THIENOPYRROLE COMPOUNDS” (ABBOTT LABORATORIES, priority 2009, published 2011).
# Target: PKCθ (Homo sapiens, UniProt Q04759)
# Assay: PKCθ enzyme data at 1 mM ATP
# Type: biochemical
# PKCθ, sequence (Q04759 whole entry): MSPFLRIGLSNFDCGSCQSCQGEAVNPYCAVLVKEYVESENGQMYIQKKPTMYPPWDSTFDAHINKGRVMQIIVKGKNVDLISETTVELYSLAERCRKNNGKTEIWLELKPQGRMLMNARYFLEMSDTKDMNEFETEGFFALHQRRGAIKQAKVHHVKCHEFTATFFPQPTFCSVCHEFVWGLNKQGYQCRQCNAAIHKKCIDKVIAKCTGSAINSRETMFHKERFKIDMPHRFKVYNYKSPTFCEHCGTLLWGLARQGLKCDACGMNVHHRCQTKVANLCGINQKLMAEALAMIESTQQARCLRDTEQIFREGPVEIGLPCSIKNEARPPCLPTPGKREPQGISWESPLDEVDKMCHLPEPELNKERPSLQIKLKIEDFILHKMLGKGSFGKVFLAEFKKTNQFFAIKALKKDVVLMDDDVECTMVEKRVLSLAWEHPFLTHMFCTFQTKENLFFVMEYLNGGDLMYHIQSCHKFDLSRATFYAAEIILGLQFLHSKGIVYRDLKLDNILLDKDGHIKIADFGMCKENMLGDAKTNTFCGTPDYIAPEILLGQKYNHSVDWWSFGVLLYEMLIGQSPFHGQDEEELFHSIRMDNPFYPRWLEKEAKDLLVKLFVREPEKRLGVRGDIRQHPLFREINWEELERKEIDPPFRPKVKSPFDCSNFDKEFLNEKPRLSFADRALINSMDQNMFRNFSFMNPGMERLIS
row,Structure (SMILES),IC50 [nM]
1,O=C1NC(=O)C(c2c[nH]c3ccsc23)=C1c1nc(N2CCn3ccnc3C2)nc2ccccc12 [E.2.7],< 100
2,"O=C1NC(=O)C(c2c[nH]c3ccsc23)=C1c1nc(N2CCN3CCC[C@@H]3C2)nc2ccccc12 [E.2.1, (R)-3-(2-(Hexahydropyrrolo[1,2-a]pyrazin-2(1H)-yl)quinazolin-4-yl)-4-(4H-thieno[3,2-b]pyrrol-6-yl)-1H-pyrrole-2,5-dione]",< 100
3,CN1CCN(c2nc(C3=C(c4c[nH]c5sccc45)C(=O)NC3=O)c3ncccc3n2)CC1 [F.4.25],100 to 500
4,CNC1(C)CCN(c2nc(C3=C(c4c[nH]c5sccc45)C(=O)NC3=O)c3ccccc3n2)CC1 [E.1.42],100 to 500
5,Cc1ncc2n1CCN(c1nc(C3=C(c4c[nH]c5sccc45)C(=O)NC3=O)c3ccccc3n1)C2 [E.1.26],< 100
6,CNCC1CCN(c2nc(C3=C(c4c[nH]c5sccc45)C(=O)NC3=O)c3ccccc3n2)C1 (stereo not drawn) [G.1.14],500 to 1000
7,O=C1NC(=O)C(c2c[nH]c3ccsc23)=C1c1nc(NCC2CCCCN2)nc2ccccc12 (stereo not drawn) [G.1.9],500 to 1000
8,"CN(C)CC1CCn2c(c(C3=C(c4c[nH]c5sccc45)C(=O)NC3=O)c3ccccc32)C1 (stereo not drawn) [Example #2, 3-(8-((Dimethylamino)methyl)-6,7,8,9-tetrahydropyrido[1,2-a]indol-10-yl)-4-(6H-thieno[2,3-b]pyrrol-4-yl)-1H-pyrrole-2,5-dione]",< 100
9,O=C1NC(=O)C(c2c[nH]c3sccc23)=C1c1nc(N2CCNCC2)nc2sccc12 [G.1.18],< 100
10,CN1CCC(C)(Cn2nc(C3=C(c4c[nH]c5sccc45)C(=O)NC3=O)c3ccccc32)CC1 [F.4.23],100 to 500
11,O=C1NC(=O)C(c2c[nH]c3sccc23)=C1c1nc(N2CCN3CCCC3C2)nc2ccccc12 (stereo not drawn) [F.2.1],< 100
12,CN1CCC(Cc2cn(C3=C(c4c[nH]c5sccc45)C(=O)NC3=O)c3ccccc23)CC1 [F.4.37],< 100
13,"CN1CCN(c2nc(C3=C(c4c[nH]c5sccc45)C(=O)NC3=O)c3c(F)cccc3n2)CC1 [F.4.1, 3-(5-Fluoro-2-(4-methylpiperazin-1-yl)quinazolin-4-yl)-4-(6H-thieno[2,3-b]pyrrol-4-yl)-1H-pyrrole-2,5-dione]",< 100
14,Cc1noc(C2CCN(c3nc(C4=C(c5c[nH]c6sccc56)C(=O)NC4=O)c4ccccc4n3)CC2)n1 [E.1.10],500 to 1000
15,CN1CC[C@H](Cn2nc(C3=C(c4c[nH]c5sccc45)C(=O)NC3=O)c3ccccc32)[C@H](F)C1 (relative stereo) [F.4.4],< 100
16,"CN1CCN(c2nc(C3=C(c4c[nH]c5sccc45)C(=O)NC3=O)c3ccccc3n2)CC1 [F.1.1, 3-(2-(4-Methylpiperazin-1-yl)quinazolin-4-yl)-4-(6H-thieno[2,3-b]pyrrol-4-yl)-1H-pyrrole-2,5-dione]",< 100

row,Structure (SMILES),IC50 [nM]
1,O=C1NC(=O)C(c2c[nH]c3ccsc23)=C1c1nc(N2CCC(N3CCOCC3)CC2)nc2ccccc12 [E.2.5],100 to 500
2,CN1CCC(Cn2cc(C3=C(c4c[nH]c5ccccc45)C(=O)NC3=O)c3ccsc32)CC1 [F.5.1],< 100
3,O=C1NC(=O)C(c2c[nH]c3sccc23)=C1c1nc(N2CCn3ncnc3C2)nc2ccccc12 [E.1.38],100 to 500
4,CN(C)C1CCN(c2nc(C3=C(c4c[nH]c5sccc45)C(=O)NC3=O)c3ccccc3n2)CC1CO (stereo not drawn) [E.1.37],< 100
5,CN(C)[C@H]1CC[C@@H](Cn2nc(C3=C(c4c[nH]c5sccc45)C(=O)NC3=O)c3ccccc32)CC1 [F.4.18],100 to 500
6,O=C1NC(=O)C(c2c[nH]c3ccsc23)=C1c1nc(N2CC3CNCC3C2)nc2ccccc12 (stereo not drawn) [G.1.3],500 to 1000
7,O=C1NC(=O)C(c2c[nH]c3sccc23)=C1c1nc(N2CCC(n3ccnc3)C2)nc2ccccc12 (stereo not drawn) [E.1.23],500 to 1000
8,CN1CC[C@@H]2CN(c3nc(C4=C(c5c[nH]c6sccc56)C(=O)NC4=O)c4ccccc4n3)CC[C@@H]21 [E.1.59],< 100
9,CN1CCN(c2nc(C3=C(c4c[nH]c5sccc45)C(=O)NC3=O)c3cc(F)ccc3n2)CC1 [F.4.15],< 100
10,O=C1NC(=O)C(c2c[nH]c3sccc23)=C1c1nc(N2CCc3nc[nH]c3C2)nc2ccccc12 [E.1.27],< 100
11,C[C@@H]1CN(C2CCN(c3nc(C4=C(c5c[nH]c6sccc56)C(=O)NC4=O)c4ccccc4n3)CC2)C[C@H](C)O1 [E.1.6],100 to 500
12,CN1CCN(c2nc(C3=C(c4c[nH]c5sccc45)C(=O)NC3=O)c3cc(Cl)ccc3n2)CC1 [F.4.13],< 100
13,"O=C1NC(=O)C(c2c3n(c4ccccc24)CCC(CO)C3)=C1c1c[nH]c2sccc12 (stereo not drawn) [Example #1, 3-(8-(Hydroxymethyl)-6,7,8,9-tetrahydropyrido[1,2-a]indol-10-yl)-4-(6H-thieno[2,3-b]pyrrol-4-yl)-1H-pyrrole-2,5-dione]",100 to 500
14,CN1CCN(c2nc3c(c(C4=C(c5c[nH]c6sccc56)C(=O)NC4=O)n2)CCCC3)CC1 [F.4.16],100 to 500
15,O=C1NC(=O)C(c2c[nH]c3sccc23)=C1c1nc(N2CC[C@@H](N3CCCC3)[C@H](F)C2)nc2ccccc12 [E.1.32],< 100
16,O=C1NC(=O)C(c2c[nH]c3sccc23)=C1c1nc(N2CCC(O)(CN3CCCC3)CC2)nc2ccccc12 [E.1.25],100 to 500

# More lines, now with the values ahead:
row,IC50 [nM],Structure (SMILES)
1,100 to 500,CCN1CCC(Cn2nc(C3=C(c4c[nH]c5sccc45)C(=O)NC3=O)c3ccccc32)CC1 [F.4.19]
2,< 100,NC1(C(=O)NC2CC2)CCN(c2nc(C3=C(c4c[nH]c5sccc45)C(=O)NC3=O)c3ccccc3n2)CC1 [E.1.58]
3,< 100,O=C1NC(=O)C(c2c[nH]c3sccc23)=C1c1nc(N2CCN(C3CC3)CC2)nc2ccccc12 [E.1.18]
4,< 100,O=C1NC(=O)C(c2c[nH]c3sccc23)=C1c1nc(N2CCn3c(cnc3CO)C2)nc2ccccc12 [E.1.48]
5,< 100,O=C1NC(=O)C(c2nn(C[C@H]3CCNC[C@H]3F)c3ccccc23)=C1c1c[nH]c2sccc12 (relative stereo) [G.1.17]
6,100 to 500,COc1cccc2nc(N3CCN(C)CC3)nc(C3=C(c4c[nH]c5sccc45)C(=O)NC3=O)c12 [F.4.11]
7,< 100,CC(C)(O)CN1CCN(c2nc(C3=C(c4c[nH]c5sccc45)C(=O)NC3=O)c3ccccc3n2)CC1 [E.1.55]
8,< 100,CCC1(N)CCN(c2nc(C3=C(c4c[nH]c5sccc45)C(=O)NC3=O)c3ccccc3n2)CC1 [E.1.43]
9,< 100,CCc1ncc2n1CCN(c1nc(C3=C(c4c[nH]c5sccc45)C(=O)NC3=O)c3ccccc3n1)C2 [E.1.47]
10,< 100,CN1CCN(c2nc(C3=C(c4c[nH]c5sccc45)C(=O)NC3=O)c3ccccc3n2)CC1CO (stereo not drawn) [E.1.45]
11,100 to 500,CN(C)[C@H]1CCN(c2nc(C3=C(c4c[nH]c5sccc45)C(=O)NC3=O)c3ccccc3n2)C[C@H]1F [E.1.33]
12,< 100,CN(C)[C@H]1CC[C@@H](n2nc(C3=C(c4c[nH]c5sccc45)C(=O)NC3=O)c3ccccc32)CC1 [F.4.5]
13,100 to 500,CC(C1CCN(c2nc(C3=C(c4c[nH]c5sccc45)C(=O)NC3=O)c3ccccc3n2)CC1)N(C)C (stereo not drawn) [E.1.12]
14,100 to 500,COCCN1CCC(Cn2nc(C3=C(c4c[nH]c5sccc45)C(=O)NC3=O)c3ccccc32)CC1 [F.4.21]
15,500 to 1000,NC(=O)C1CCN(c2nc(C3=C(c4c[nH]c5sccc45)C(=O)NC3=O)c3ccccc3n2)CC1 [E.1.14]
16,< 100,O=C1NC(=O)C(c2c[nH]c3sccc23)=C1c1nc(N2CCn3cncc3C2)nc2ccccc12 [E.1.46]
17,< 100,"O=C1NC(=O)C(c2nc(N3CCN4CCC[C@@H]4C3)nc3cccc(F)c23)=C1c1c[nH]c2sccc12 [F.4.3, (R)-3-(5-Fluoro-2-(hexahydropyrrolo[1,2-a]pyrazin-2(1H)-yl)quinazolin-4-yl)-4-(6H-thieno[2,3-b]pyrrol-4-yl)-1H-pyrrole-2,5-dione]"

row,IC50 [nM],Structure (SMILES)
1,100 to 500,O=C1NC(=O)C(c2c[nH]c3ccsc23)=C1c1nc(N2CCn3cnnc3C2)nc2ccccc12 [E.2.8]
2,< 100,"CN1CCN(c2nc(C3=C(c4c[nH]c5ccsc45)C(=O)NC3=O)c3ccccc3n2)CC1 [F.1.2, 3-(2-(4-Methylpiperazin-1-yl)quinazolin-4-yl)-4-(4H-thieno[3,2-b]pyrrol-6-yl)-1H-pyrrole-2,5-dione]"
3,100 to 500,CNC1CCN(c2nc(C3=C(c4c[nH]c5sccc45)C(=O)NC3=O)c3ccccc3n2)C1 (stereo not drawn) [G.1.7]
4,< 100,"O=C1NC(=O)C(c2nc(N3CCN4CCC[C@@H]4C3)nc3cccc(F)c23)=C1c1c[nH]c2ccsc12 [F.3.2, (R)-3-(5-Fluoro-2-(hexahydropyrrolo[1,2-a]pyrazin-2(1H)-yl)quinazolin-4-yl)-4-(4H-thieno[3,2-b]pyrrol-6-yl)-1H-pyrrole-2,5-dione]"
5,100 to 500,O=C1NC(=O)C(c2c[nH]c3sccc23)=C1c1nc(N2C[C@@H]3C[C@H]2CN3)nc2ccccc12 [G.1.2]
6,< 100,CN1CCC(Cn2cc(C3=C(c4c[nH]c5sccc45)C(=O)NC3=O)c3ccccc32)CC1 [F.4.17]
7,< 100,O=C1NC(=O)C(c2c[nH]c3sccc23)=C1c1nc(N2CCN3CCC[C@H]3C2)nc2sccc12 [E.3.1]
8,100 to 500,O=C1NC(=O)C(c2c[nH]c3sccc23)=C1c1nc(N2CC[C@H](N3CCCC3)[C@H](F)C2)nc2ccccc12 [E.1.29]
9,< 100,CC(C)(CO)N1CCN(c2nc(C3=C(c4c[nH]c5sccc45)C(=O)NC3=O)c3ccccc3n2)CC1 [E.1.56]
10,500 to 1000,CN1CCC(Cc2nc(C3=C(c4c[nH]c5sccc45)C(=O)NC3=O)c3ccccn23)CC1 [F.4.33]
11,500 to 1000,CN(C)CCCCn1nc(C2=C(c3c[nH]c4sccc34)C(=O)NC2=O)c2ccccc21 [F.4.27]
12,100 to 500,O=C1NC(=O)C(c2c[nH]c3ccsc23)=C1c1nc(N2CCC3(CCCNC3)C2)nc2ccccc12 (stereo not drawn) [G.1.6]
13,100 to 500,O=C1NC(=O)C(c2c[nH]c3sccc23)=C1c1nc(N2CCC(CN3CCOCC3)CC2)nc2ccccc12 [E.1.16]
14,< 100,O=C1NC(=O)C(c2c[nH]c3sccc23)=C1c1nc(N2CCn3cnc(CO)c3C2)nc2ccccc12 [E.1.50]
15,< 100,NC1(CCO)CCN(c2nc(C3=C(c4c[nH]c5sccc45)C(=O)NC3=O)c3ccccc3n2)CC1 [E.1.34]
16,< 100,CN1CCN(c2nc(C3=C(c4c[nH]c5sccc45)C(=O)NC3=O)c3ccncc3n2)CC1 [F.4.24]
17,< 100,Cn1cnc2c1CN(c1nc(C3=C(c4c[nH]c5sccc45)C(=O)NC3=O)c3ccccc3n1)CC2 [E.1.53]
